Patent publication US5192664A, “Parathyroid hypertensive factor, antibodies and uses thereof” (Pang; Peter K. T., priority 1990, dated 1993)

System: Blood Pressure in SHR
Experiment: Feeding of nifedipine and dietary calcium to SHR rats for 8 weeks, mean blood pressure
Format: in vivo, rat
Details: for Blood Pressure in SHR: nifedipine 0 mg/kg food, 8 weeks feeding
Experimental: Male rats of the SHR strain, obtained from Harlan Sprague-Dawley, 12 weeks old, were divided into groups of 12 or 24, and were fed prepared diets containing 0.2%, 0.4% and 0.8% elemental calcium, respectively. […] Distilled water was available ad lib. Feeding was continued for 8 weeks and the mean blood pressure of each animal was determined at the end of that time.

For `[Ca]` [Calcium], the “decrease in blood pressure” value (4 times the amount of ordinary dietary calcium, no nifedipine) was “measurable, but small”, the “Blood Pressure in SHR” value (dietary calcium 0.4%) was 164 ± 6 mm Hg and the “Blood Pressure in SHR” value (dietary calcium 0.8%) was 169 ± 6 mm Hg.
